Legend:
MMP9 = target: T1, MMP9 (Rattus norvegicus, UniProt P50282); experiment: Active MMP9 in ankles of rats with SCW-induced arthritis by Western blot; type: in vivo; details: day 26, four hours after AM dose; FIG. 3A lanes 4-9
T1 construct: Pro and active MMP9 were abundantly present in ankles of SCW-induced vehicle-treated rats; from tissue; host or cells: tibia-tarsus joints (ankles) of female Lewis rats
Method: Hind-limbs were skinned, severed just above the tibia-tarsus joint and below the metatarsals, and the tibia-tarsus joints (ankles) were weighed, snap frozen and pulverized on dry ice using a hammer and anvil. The pulverized tissue was suspended in 3 volumes (w:v) of ice-cold homogenization buffer containing 50 mM Tris pH 7.5, 150 mM NaCl, 5 mM EDTA, 1% Triton X100, 0.05% Brij 30, 10% dimethylsulfoxide and Complete EDTA-free Protease Inhibitor Cocktail (Roche Diagnostics). The suspended tissue was homogenized sequentially with a Kinematica AG Polytron and a Dounce homogenizer. Homogenates were centrifuged at 16,000×g for 10 min at 4° C. and the soluble fractions were saved. Dimethylsulfoxide was removed from a portion of each soluble fraction using PD MiniTrap™ G-25 desalting columns (GE Healthcare). Homogenates (0.25 mL), free of DMSO, were diluted with an equal volume of binding buffer (i.e., homogenization buffer without dimethylsufoxide) and adjusted to contain 50 μL of a 50% slurry of gelatin-conjugated sepharose. Following 2 hours of rotation at 4° C. the beads were washed twice in binding buffer and eluted in 100 μL 2×-reducing Laemmli buffer with heating to 95° C. for 5 minutes. […]

[1] = target: T2, MMP9 mediated gelatinase activity (Rattus norvegicus, UniProt P50282); experiment: In situ zymography of gelatinase activity in livers of SCW-induced rats; type: in vivo; parameters: reduction of liver gelatinase activity: reference not given here; details: for Intensity Mean / Intensity Rat 1 / Intensity Rat 2 / Intensity Rat 3: Day 25-28, liver
T2 construct: from tissue; host or cells: liver cryosections of female Lewis rats
Excerpt: In situ zymography provides an alternative approach to assess active MMP9 in tissues (J Histochem Cytochem; 2004; 52:711-722). Tissue sections are overlain with fluorescein-conjugated gelatin wherein the conjugation is sufficiently dense to cause the fluorescein to be dye-quenched (DQ). Proteolytic degradation of the DQ-gelatin releases the fluorescein from the quenching effect giving rise to bright green fluorescence at the site of degradation. Because in situ zymography requires the use of frozen sections, calcified tissues are problematic. However, an additional feature of the SCW arthritis model is the development of hepatic granulomatous disease (J Immunol; 1986; 137:2199-2209), and MMP9 reportedly plays a role in macrophage recruitment in the granulomas response to mycobacteria (Infect Immun; 2006; 74:6135-6144). Consequently, granulomatous livers from SCW-treated rats were assessed for active MMP9 by in situ zymography.
As described above, Female Lewis (LEW/N) rats, 5-6 weeks of age (80-100 g) were injected (i.p.) with saline or SCW PG-PS. On day 28, when the granulomatous response was well established, animals were sacrificed and livers were frozen in OCT cryo-sectioning medium and 10 μm sections were cut on a Cryome HM 500 M cryotome and mounted on glass microscope slides. Sections were air dried briefly. MMP9 was confirmed as the source of the gelatinase activity in the liver by treating liver sections with monoclonal antibodies directed against the active site of the two major gelatinases MMP9 and MMP2. Liver sections overlain with 50 μL of 100 μg/mL neutralizing mouse monoclonal antibodies directed against MMP9 (Calbiochem, clone 6-6B), or MMP2 (Millipore, clone CA-4001), or with PBS for 1 hr at room temperature. Tissues were rinsed once with PBS, blotted, and briefly air dried and then overlain with DQ-gelatin (Invitrogen) dissolved to 1 mg/mL in deionized water and then diluted 1:10 in 1% wt/vol low gelling point agarose type VII (Sigma) in PBS. The sections were covered with coverslips, incubated in the dark at room temperature for 20 min, and imaged on an Olympus IX80 inverted microscope fitted with fluorescence optics, using SlideBook™ imaging software (Intelligent Imaging Innovations, Inc., Philadelphia, Pa.; version 5.0). Fluorescence intensity was determined (Table 8). When compared to a saline-treated rat, gelatinase activity was abundantly expressed in granulomatous liver sections obtained from a rat with SCW arthritis.
Next, liver in situ zymography was used to assess the relative presence of active MMP9 in rats dosed with vehicle vs. Compound α. Female Lewis (LEW/N) rats, 5-6 weeks of age (80-100 g) were injected (i.p.) with saline or SCW PG-PS. Commencing on day 25, randomized groups of rats (n=3 rats/group) received vehicle or 20 or 50 mg/kg Compound α BID by oral gavage.
Vehicle consisted of an aqueous mixture containing 2% (v:v) N-methylpyrrolidone, 5% (v:v) glycerine, and 20% (w:v) captisol. Treatment continued daily through the morning of day 28. Four hrs after the AM dose on day 28, rats were sacrificed and livers assessed for active MMP9 by in situ zymography (Table 9). Gelatinase activity was increased markedly in SCW-induced rats, but activity was reduced by approximately 80% in animals treated with 50 mg/kg Compound α.

T2 sequence (P50282 108-708): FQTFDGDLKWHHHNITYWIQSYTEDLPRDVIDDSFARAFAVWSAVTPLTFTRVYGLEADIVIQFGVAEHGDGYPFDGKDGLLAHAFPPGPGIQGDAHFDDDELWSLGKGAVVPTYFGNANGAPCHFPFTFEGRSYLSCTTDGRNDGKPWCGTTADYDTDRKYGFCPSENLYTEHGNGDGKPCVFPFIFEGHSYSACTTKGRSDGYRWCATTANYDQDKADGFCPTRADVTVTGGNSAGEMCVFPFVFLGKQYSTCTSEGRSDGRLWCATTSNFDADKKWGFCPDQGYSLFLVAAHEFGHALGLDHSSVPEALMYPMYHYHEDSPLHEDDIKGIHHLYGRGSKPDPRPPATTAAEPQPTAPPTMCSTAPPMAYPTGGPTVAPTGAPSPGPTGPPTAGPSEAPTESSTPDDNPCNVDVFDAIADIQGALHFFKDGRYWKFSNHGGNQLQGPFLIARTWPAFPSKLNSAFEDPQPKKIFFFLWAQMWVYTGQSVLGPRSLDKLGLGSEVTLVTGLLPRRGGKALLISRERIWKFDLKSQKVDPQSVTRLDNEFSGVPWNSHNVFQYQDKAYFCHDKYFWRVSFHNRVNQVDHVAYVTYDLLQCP
T1 sequence (P50282 108-708): as above

abundance of proMMP9 in ankles (MMP9): did not reduce | Intensity Mean ([1]; 20 mg/kg BID oral): 55.2 RLU × 10^6 | Intensity Rat 1 ([1]; 20 mg/kg BID oral): 43.0 RLU × 10^6 | Intensity Rat 2 ([1]; 20 mg/kg BID oral): 69.0 RLU × 10^6 | Intensity Rat 3 ([1]; 20 mg/kg BID oral): 53.7 RLU × 10^6 | reduction of liver gelatinase activity ([1]; 50 mg/kg BID oral, Day 25-28): approximately 80% | Intensity Mean ([1]; 50 mg/kg BID oral): 11.1 RLU × 10^6 | Intensity Rat 1 ([1]; 50 mg/kg BID oral): 3.2 RLU × 10^6 | Intensity Rat 2 ([1]; 50 mg/kg BID oral): 25.6 RLU × 10^6 | Intensity Rat 3 ([1]; 50 mg/kg BID oral): 4.5 RLU × 10^6
Structure (SMILES): Cc1nc(C)c(-c2csc(Nc3cc(S(N)(=O)=O)ccc3OC(C)C)n2)s1 [Compound α, 3-(2′,4′-Dimethyl-[4,5′]bithiazolyl-2-ylamino)-4-isopropoxy-benzenesulfonamide.HBr]

Source: patent US20120302569A1, “PHENYL-THIAZOLYL INHIBITORS OF PRO-MATRIX METALLOPROTEINASE ACTIVATION” (priority 2011, published 2012)
